Patent US20030161827A1, “Therapies that improve graft survival” (priority 2000, published 2003)

Tested on: renal allograft
Test: Unilateral renal transplantation, mAb and sirolimus (Example 2)
Assay type: in vivo, monkey
Settings: n=4 per group; treatment until day 56, followed until day 119
Experimental: Unilateral renal transplantation was performed in 12 blood group matched and MLR mismatched animals. […] Sirolimus was administered by daily gavage at 1 mg/kg at day 0 to day 13 and then 0.5 mg/kg from day 13 to day 56. All animals were off immunosuppression after day 56 and were then followed until day 119.

CO[C@H]1C[C@@H]2CC[C@@H](C)[C@@](O)(O2)C(=O)C(=O)N2CCCC[C@H]2C(=O)O[C@H]([C@H](C)C[C@@H]2CC[C@@H](O)[C@H](OC)C2)CC(=O)[C@H](C)/C=C(\C)[C@@H](O)[C@@H](OC)C(=O)[C@H](C)C[C@H](C)/C=C/C=C/C=C/1C [sirolimus]
mean survival: 23 days
